# Key:
# [1] = test system: Tumor necrosis factor (TNF-α); assay: TNF-α production in human primary sebocytes; assay type: cell-based; settings: human primary sebocytes in vitro; CBD isolate at same concentration as present in the invention
# Protocol: (§1) In a study using human primary keratinocytes, two formulations were analyzed, Natural Blemish Light Lotion (NB) and Natural Blemish OTC Lotion (OTC) for unique properties. All the following experiments include a 24-hour treatment of the finished products used in the dilutions shown and were analyzed by quantitative polymerase chain reaction (qPCR).
# (§2) Because sebum production is a major factor in the pathophysiology of acne vulgaris, experiments were performed using human primary sebocytes isolated from the eye area. The main function of sebocytes is considered to be the production of lipids to moisturize the skin. However, it recently became apparent that sebocytes release chemokines and cytokines and respond to proinflammatory stimuli as well as the presence of bacteria. (Attii M, Lovászi M, Garzorz N, Atenhan A, Quaranta M, Lauffer F, Konstantinow A, Küpper M, Zouboulis C C, Kemeny L, Eyerich K, Schmidt-Weber C B, Töröcsik D, Eyerich S. Sebocytes contribute to skin inflammation by promoting the differentiation of T helper 17 cells. Br J Dermatol. 2018 March; 178(3):722-730. doi: 10.1111/bjd.15879. Epub 2018 Jan. 9. PMID: 28799643). The overproduction of sebum, proinflammatory chemokines and cytokines released from sebocytes all contribute to the formation of comedones on the skin. Both OTC and NB were studied as well as AP to investigate the efficacy of these products. […]
# Interleukin-6 (IL-6) = assay: Interleukin-6 expression in keratinocytes; assay type: cell-based, human; settings: 24-hour treatment, CBD isolate at same concentration as present in the invention
# Protocol: as §1
# Interleukin-6 (IL-6) is a well-established marker for inflammation. Largely produced in the skin by keratinocytes, its production leads to the activation of the STAT3 pathway which has been linked to the pathogenesis of many inflammatory skin diseases (Activation of Janus kinase signaling pathway in acne lesions, Sara Mohamed Awad, Yasmin Mostafa Tawfik, Mohamed Ahmed El-Mokhtar, Amira F. El-Gazzar, Amira Ali Abdel Motaleb First published: 19 Nov. 2020 https://doi.org/10.1111/dth.14563). In addition, IL-6 exerts stimulatory effects on T-cells and B-cells, thus favoring chronic inflammatory responses. (Gabay C. Interleukin-6 and chronic inflammation. Arthritis Res Ther. 2006; 8 Suppl 2(Suppl 2):S3. doi:10.1186/ar1917). […] That is, the compositions work better to reduce expression of IL-6 than the individual ingredients, namely CBD alone.
# Fox-01 = assay: FOX-01 expression in human primary sebocytes; assay type: cell-based; settings: 100 ug/mL
# Protocol: as §1, §2
compound,measurement,setting,value
"C=C(C)[C@@H]1CCC(C)=C[C@H]1c1c(O)cc(CCCCC)cc1O [CBD isolate, Cannabidiol]",lowered production of TNF-α,[1],14.0%
same,reduction of expression of IL-6,Interleukin-6 (IL-6),6.0%
same,increase of Fox-01 expression,Fox-01,50.8%
